Experimental data reported in patent US20110039763A1, “TARGETED ANTIMICROBIAL MOIETIES” (C3 JIAN, INC., priority 2009, published 2011).
Where two headings read alike, the source gives them in different places. Ends that are not written are not given here. Peptide text beside a SMILES is read from it.

What was measured:
A. niger = test: MIC test / antimicrobial activity, A. niger; format: cell-based, Aspergillus niger
Description: (§1) The active AMPs, STAMPs and the like can be identified and/or validated using an in vitro screening assay.
(§2) It will be appreciated that other assays as are well known in the art or that will become apparent to those having skill in the art upon review of this disclosure may also be used to identify active AMPs. Such assays include, for example, the assay described in Lehrer et al. (1988) J. Immunol.
(§3) Peptides were evaluated for basic antimicrobial activity by broth microdilution, as described previously (Eckert et al. (2006) Antimicrob Agents Chemother., 50: 3651-3657; Eckert et al. (2006) Antimicrob Agents Chemother., 50: 1480-1488). Briefly, ˜1×10^5 cfu/mL bacteria were diluted in TH (S. mutans), or Mueller-Hinton (MH) broth (all other organisms) and distributed to 96-well plates. Serially-diluted (2-fold) peptides were then added and the plates incubated at 37° C. for 18-24 h. […] All experiments were conducted 10 times.

microorganisms [1] = test: Morphology, biofilm and growth disrupting peptides (Table 5); format: cell-based; set-up: key: A: Peptide aggregates; B: Less hyphal formation; Clumps; Diffuse clumps and small polyps; F: Diffuse growth; H: Thin; I: Growth inhibition; Microcolony formation; Rippled; Small polyps; Thick; W: Halo formation on top, microlonies on bottom
Text: In certain embodiments peptides that induce alterations in phenotype or other biological activities can also be used as antimicrobial effector moieties.

microorganisms [2] = test: Peptide activities: targeting/binding, antimicrobial, growth or phenotype altering (Tables 7, 8); format: cell-based; settings: peptides having multiple activities
P. aeruginosa [3] = test: MIC test (broth microdilution) / antimicrobial activity, P. aeruginosa; format: cell-based, Pseudomonas aeruginosa
Description: as §1, §2, §3

T. rubrum = test: MIC test / antimicrobial activity, T. rubrum; format: cell-based, Trichophyton rubrum
Description: as §1, §2, §3

C. jeikeium = test: MIC test / antimicrobial activity, C. jeikeium; format: cell-based, Corynebacterium jeikeium
Description: as §1, §2, §3

A. baumannii = test: MIC test / antimicrobial activity, A. baumannii; format: cell-based, Acinetobacter baumannii
Description: as §1, §2, §3

B. subtilis = test: MIC test / antimicrobial activity, B. subtilis; format: cell-based, Bacillus subtilis
Description: as §1, §2, §3

S. epidermidis [4] = test: MIC test (broth microdilution) / antimicrobial activity, S. epidermidis; format: cell-based, Staphylococcus epidermidis
Description: as §1, §2, §3

S. mutans [5] = test: MIC test (broth microdilution) / antimicrobial activity, S. mutans; format: cell-based, Streptococcus mutans
Description: as §1, §2, §3

C. difficile = test: MIC test / antimicrobial activity, C. difficile; format: cell-based, Clostridium difficile
Description: as §1, §2, §3

S. pneumoniae = test: MIC test / antimicrobial activity, S. pneumoniae; format: cell-based, Streptococcus pneumoniae
Description: as §1, §2, §3

E. coli [6] = test: MIC test (broth microdilution) / antimicrobial activity, E. coli; format: cell-based, Escherichia coli
Description: as §1, §2, §3

MRSA = test: MIC test / antimicrobial activity, MRSA; format: cell-based, Methicillin-resistant Staphylococcus aureus
Description: as §1, §2, §3

S. epidermidis [7] = test: Post-antibiotic effect assay, S. epidermidis; format: cell-based, Staphylococcus epidermidis; settings: S. epidermidis monoculture; peptide 10 min, then fresh medium; FIG. 17C
Description: (§4) The activity and selectivity of MH-STAMPs after a 10 min incubation was determined by growth retardation experiments against targeted and untargeted bacteria in monocultures, as described previously (Id.). Cells from overnight cultures were diluted to ˜5×10^6 cfu/mL in MH (or TH with 1% sucrose for S. mutans), normalized by OD600 0.05-0.1 and seeded to 96-well plates. Cultures were then grown under the appropriate conditions for 2 h (3 h for S. mutans) prior to the addition of peptides for 10 min. Plates were then centrifuged at 3000×g for 5 min, the supernatants discarded, fresh medium returned (MH or TH without sucrose for S. mutans), and incubation resumed. Bacterial growth after treatment was then monitored over time by OD600.
(§5) MH-STAMP antimicrobial kinetics was ascertained utilizing a variation of the classical post-antibiotic effect assay, which measures the ability of an agent to affect an organism's growth after a short exposure period. Monocultures of MH-STAMP-targeted and untargeted organisms were exposed to M8(KH)-20, M8(BL)-20, BL(KH)-20, or unmodified BD2.20, then allowed to recover. […] Furthermore, replacement of the targeting region with a non-binding peptide abolishes specific activity.

[8] = system: Mixed planktonic populations of P. aeruginosa, E. coli, S. epidermidis, and S. mutans; test: Microbial population shift assay; format: cell-based; settings: mixed culture, 10 μM peptide, 24 h, detection limit 200 cfu/mL, FIG. 18
Description: Peptide (10 μM) or mock-treatment (1×PBS) was then added and samples were incubated at 37° C. for 24 h under anaerobic conditions (80% N2, 15% CO2, 5% H2). […] Plates were then incubated 37° C. under aerobic conditions (TH plates were incubated anaerobically) and colonies counted after 24 h to determine survivors. […] Gram stains and direct microscopic observation (from select isolated colonies) were undertaken to confirm species identity (data not shown). The detection limit of the assay was 200 cfu/mL.
We hypothesized that potential MH-STAMP dual-functionality could affect a particular set of bacteria within a mixed population, thereby promoting the outgrowth of non-targeted organisms and “shifting” the constituent makeup. To examine this possibility, defined mixed populations of planktonic cells were treated continuously and the make-up of the community examined after 24 h.

P. aeruginosa [9] = test: Post-antibiotic effect assay, P. aeruginosa; format: cell-based, Pseudomonas aeruginosa; settings: P. aeruginosa monoculture; peptide 10 min, then fresh medium; FIG. 17B
Description: as §4, §5

S. mutans [10] = test: Post-antibiotic effect assay, S. mutans; format: cell-based, Streptococcus mutans; settings: S. mutans monoculture; peptide 10 min, then fresh medium; FIG. 17A
Description: as §4, §5

S. aureus = test: Post-antibiotic effect assay, S. aureus; format: cell-based, Staphylococcus aureus; settings: S. aureus monoculture; peptide 10 min, then fresh medium; FIG. 17D
Description: as §4, §5

E. coli [11] = test: Post-antibiotic effect assay, E. coli; format: cell-based, Escherichia coli; settings: E. coli monoculture; peptide 10 min, then fresh medium; FIG. 17E
Description: as §4, §5

Compound | Organism MIC (μM) (A. niger) | Organism, effect (microorganisms [1]; P. aeruginosa) | Organism, effect (microorganisms [1]; S. epidermidis) | Organism, effect (microorganisms [1]; S. pneumoniae) | Activities (microorganisms [2]) | Organism MIC (μM) (T. rubrum) | Organism MIC (μM) (C. jeikeium) | Organism MIC (μM) (S. epidermidis [4]; S. epidermidis) | Organism MIC (μM) (S. mutans [5]) | Organism, effect (microorganisms [1]; C. albicans) | Organism, effect (microorganisms [1]; MRSA) | Organism MIC (μM) (MRSA) | also measured
YIQFHLNQQPRPKVKKIKIFL-NH2 [PF-531] | A. niger, 25 μM | P. aeruginosa (I) | S. epidermidis (I) | S. pneumoniae (C) | G M | T. rubrum, 50 μM | C. jeikeium, 6.25 μM | S. epidermidis, 50 μM | S. mutans, 12.5 μM | – | – | – | Organism, effect (microorganisms [1]; E. coli): E. coli (M); Organism MIC (μM) (P. aeruginosa [3]; P. aeruginosa): P. aeruginosa, 50 μM; Organism MIC (μM) (A. baumannii): A. baumannii, 25 μM; Organism MIC (μM) (B. subtilis; B. subtilis): B. subtilis, 25 μM; Organism MIC (μM) (C. difficile): C. difficile, 12.5 μM
FESKILNASKELDKEKKVNTALSFNSHQDFAKAYQNGKI [PF-606] | – | – | S. epidermidis (I) | S. pneumoniae (H) | G M | – | – | S. epidermidis, 50 μM | S. mutans, 50 μM | C. albicans (B) | MRSA (I) | MRSA, 50 μM | Organism, effect (microorganisms [1]; S. mutans): S. mutans (I); Organism MIC (μM) (S. pneumoniae): S. pneumoniae, 50 μM; Organism MIC (μM) (E. coli [6]): E. coli, 50 μM
CC[C@H](C)[C@H](NC(=O)[C@@H](N)Cc1ccccc1)C(=O)N[C@@H](CCCNC(=N)N)C(=O)N[C@@H](CCCCN)C(=O)N[C@@H](Cc1ccccc1)C(=O)N[C@@H](CC(C)C)C(=O)N[C@@H](CCCCN)C(=O)N[C@@H](CCCCN)C(=O)N[C@@H](Cc1c[nH]c2ccccc12)C(=O)N[C@@H](CC(C)C)C(=O)N[C@@H](CC(C)C)C(N)=O [BD2.20] (H-FIRKFLKKWLL-NH2; N-terminus assumed) | – | – | – | – | – | – | – | – | – | – | – | – | growth after treatment (culture recovery, OD600) (S. epidermidis [7]): inhibited; surviving P. aeruginosa ([8]; input ~0.5×10^4 cfu/mL): significant loss of recoverable cfu/mL; surviving E. coli ([8]; input ~2×10^4 cfu/mL): significant loss of recoverable cfu/mL; surviving S. epidermidis ([8]; input ~2×10^4 cfu/mL): significant loss of recoverable cfu/mL; surviving S. mutans ([8]; input ~6×10^4 cfu/mL): significant loss of recoverable cfu/mL; growth after treatment (culture recovery, OD600) (P. aeruginosa [9]): robust antimicrobial activity; growth after treatment (culture recovery, OD600) (S. mutans [10]): robust antimicrobial activity; growth after treatment (culture recovery, OD600) (S. aureus): inhibited; growth after treatment (culture recovery, OD600) (E. coli [11]): inhibited
GSVIKKRRKRMAKKKHRKLLKKTRIQRRRAGK [PF-527] | A. niger, 50 μM | P. aeruginosa (I) | S. epidermidis (M) | S. pneumoniae (H) | G B M | T. rubrum, 25 μM | C. jeikeium, 6.25 μM | – | – | C. albicans (B) | MRSA (I) | MRSA, 50 μM | Organism, effect (microorganisms [1]; B. subtilis): B. subtilis (I); Organism, effect (microorganisms [1]; C. jeikeium): C. jeikeium (I); Organism, effect (microorganisms [1]; C. jejuni): C. jejuni (M); Organism, effect (microorganisms [1]; M. luteus): M. luteus (S); Organism MIC (μM) (P. aeruginosa [3]): P. aeruginosa, 50 μM; Organism MIC (μM) (B. subtilis): B. subtilis, 12.5 μM; Organism MIC (μM) (S. epidermidis [4]): S. epidermidis, 25 μM
